Columns and labels:
Conditions in all cases: 72 h
[1] = system: HL-60; experiment: cell viability (% survival relative to DMSO control); higher = less cytotoxic
In short: (§1)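 A rescreen of the full library used HL-60 cells in RPMI 1640 with 10% FBS on 384-well plates, run in duplicate at five tenfold concentrations (1–10,000 nM). Each screen included DMSO or 100 nM of one of three metabolic inhibitors and ran 72 h at 37 °C, 5% CO2. CellTiter-Glo viability was scaled between DMSO and 10 μM proteasome-inhibitor wells. Any area under the curve comes from four-parameter log-logistic fits with drc and PharmacoGx.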

[2] = system: myeloid leukemia patient primary cells Pat.10; experiment: cell viability (% survival relative to DMSO control); higher = less cytotoxic
In short: (§2)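 Seventy compounds were pre-printed on 384-well plates at five tenfold concentrations between 1 and 10,000 nM, in duplicate. Thawed mononuclear cells purified by Ficoll from AML or CML patients were added at 10,000 cells/well in RPMI 1640 with 10% FBS for 72 h. Viability by CellTiter-Glo was normalised to DMSO and 10 μM proteasome-inhibitor wells. Where stated, area under the curve was taken from log-logistic fits made with the drc and PharmacoGx R packages, each fit having four parameters.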

[3] = system: myeloid leukemia patient primary cells Pat.11; experiment: as above
In short: as §2

[4] = system: myeloid leukemia patient primary cells Pat.12; experiment: as above
In short: as §2

[5] = system: myeloid leukemia patient primary cells Pat.13; experiment: as above
In short: as §2

[6] = system: myeloid leukemia patient primary cells Pat.14; experiment: as above
In short: as §2

[7] = system: myeloid leukemia patient primary cells Pat.15; experiment: as above
In short: as §2

[8] = system: myeloid leukemia patient primary cells Pat.1; experiment: as above
In short: as §2

[9] = system: myeloid leukemia patient primary cells Pat.2; experiment: as above
In short: as §2

[10] = system: myeloid leukemia patient primary cells Pat.3; experiment: as above
In short: as §2

[11] = system: myeloid leukemia patient primary cells Pat.4; experiment: as above
In short: as §2

[12] = system: myeloid leukemia patient primary cells Pat.5; experiment: as above
In short: as §2

[13] = system: myeloid leukemia patient primary cells Pat.6; experiment: as above
In short: as §2

[14] = system: myeloid leukemia patient primary cells Pat.7; experiment: as above
In short: as §2

[15] = system: myeloid leukemia patient primary cells Pat.8; experiment: as above
In short: as §2

[16] = system: myeloid leukemia patient primary cells Pat.9; experiment: as above
In short: as §2

[17] = system: HL-60; experiment: area under dose-response curve (viability, 1 nM-10 uM) (fraction (0-1)); higher = more sensitive
In short: as §1

O=C(/C=C/c1ccc(O)c(O)c1)OCCc1ccccc1 [Caffeic acid phenethyl ester]
cell viability [%], [1]
Conditions	0.001 µM	0.01 µM	0.1 µM	1 µM	10 µM
co-treatment: AZD3965 100 nM	98.9	99.96	104	103	27.4
co-treatment: DMSO vehicle	76	95.8	98.75	98.83	33.3
co-treatment: GSK2194069 100 nM	93.3	100.7	102	97.1	33.1
co-treatment: pictilisib 100 nM	101	102	96.7	81.5	22.1

Conditions	area under dose-response curve, co-treatment: AZD3965 100 nM	area under dose-response curve, co-treatment: DMSO vehicle	area under dose-response curve, co-treatment: GSK2194069 100 nM	area under dose-response curve, co-treatment: pictilisib 100 nM	cell viability, 1 nM [%]	cell viability, 10 nM [%]	cell viability, 100 nM [%]	cell viability, 1000 nM [%]	cell viability, 10000 nM [%]
[2]	–	–	–	–	88.2	63.9	33	31	83.7
[3]	–	–	–	–	96.1	97.8	> 100	73.5	38
[4]	–	–	–	–	> 100	95.5	> 100	57.4	34.5
[5]	–	–	–	–	> 100	91	95.8	87.2	42
[6]	–	–	–	–	95.7	83.5	80.5	48.9	16.3
[7]	–	–	–	–	96.5	85.8	96.1	64.9	40.5
[8]	–	–	–	–	98.5	93	98.4	63.3	44
[9]	–	–	–	–	95.4	98.6	> 100	89.3	64
[10]	–	–	–	–	92	83.1	39.1	41.7	3.62
[11]	–	–	–	–	89.5	87.7	86.2	16.7	2.41
[12]	–	–	–	–	65.2	69.6	55.9	4.78	21.6
[13]	–	–	–	–	98	93.6	96.9	65.7	35.2
[14]	–	–	–	–	74.4	79.4	78.2	16.3	< 0
[15]	–	–	–	–	97.7	80.9	85.1	29	5.61
[16]	–	–	–	–	68.9	84.8	8.63	11.1	11.8
[17]	0.0691	0.0547	0.0593	0.138	–	–	–	–	–
